The results in this text go back to article PMC8815882, “Screening the pandemic response box identified benzimidazole carbamates, Olorofim and ravuconazole as promising drug candidates for the treatment of eumycetoma” (PLoS Neglected Tropical Diseases, 2022).

The subject of assay [1] is M. mycetomatis genome strain MM55. Put plainly: CLSI M38-A2 based in vitro susceptibility screening (XTT or resazurin), growth at fixed concentration. Format: cell-based, Madurella mycetomatis. As to conditions: Madurella mycetomatis; for Percent fungal survival at 100 µM: read-out: Percentage survival at 100um, 100 uM A (second replicate column). A general note: Formazan colour is commonly taken as a measure of viable cells.

The test system of assay [2] is M. mycetomatis MM55. Put plainly: IC50 determination, 2-fold dilution series 16 to 0.03125 μM. Format: cell-based, Madurella mycetomatis. The settings on record: for IC50 / IC90: Madurella mycetomatis.
The mark [3] stands for this setting: mean of three replicates, read-out: Percentage survival at 25um, 25 uM mean.
Setting [4] is: replicate A, read-out: Percentage survival at 25um, 25 um A.
Where [5] appears, read: replicate B, read-out: Percentage survival at 25um, 25 uM B.
[6] abbreviates: replicate C, read-out: Percentage survival at 25um, 25 uM C.
Setting [7] is: mean of three replicates, read-out: Percentage survival at 100um, 100 uM mean.
Setting [8] is: replicate 1, read-out: Percentage survival at 100um, 100 uM A (first replicate column).
Setting [9] is: replicate 3, read-out: Percentage survival at 100um, 100 uM A (third replicate column).
Where [10] appears, read: MM55, mean of three replicates, read-out: IC50 mean.
Setting [11] is: MM55, mean of three replicates, read-out: IC90 mean.
Setting [12] is: MM55, replicate 1, read-out: IC50 1 um.
[13] abbreviates: MM55, replicate 1, read-out: IC90 1 um.
Setting [14] is: MM55, replicate 2, read-out: IC50 2 um.
Where [15] appears, read: MM55, replicate 2, read-out: IC90 2 um.
[16] abbreviates: MM55, replicate 3, read-out: IC50 3 um.
Where [17] appears, read: MM55, replicate 3, read-out: IC90 3 um.
[18] abbreviates: mean of three, M. mycetomatis MM55, read-out: Percentage survival at 25um, 25 uM mean.
Setting [19] is: replicate A, M. mycetomatis MM55, read-out: Percentage survival at 25um, 25 um A.
[20] abbreviates: replicate B, M. mycetomatis MM55, read-out: Percentage survival at 25um, 25 uM B.
Setting [21] is: replicate C, M. mycetomatis MM55, read-out: Percentage survival at 25um, 25 uM C.
Setting [22] is: mean of three, M. mycetomatis MM55, read-out: Percentage survival at 100um, 100 uM mean.
[23] abbreviates: replicate 1, M. mycetomatis MM55, read-out: Percentage survival at 100um, 100 uM A (first replicate column).
Where [24] appears, read: replicate 2, M. mycetomatis MM55.
Setting [25] is: replicate 3, M. mycetomatis MM55, read-out: Percentage survival at 100um, 100 uM A (third replicate column).
[26] abbreviates: MM55, Table 3, benzimidazole carbamates, M. mycetomatis, read-out: IC50.

Read-outs that look alike come from different tables or passages of the source. Bounds are passed on as bounds.

Broadly, the IC50 is the concentration that inhibits the measured activity by half. Broadly, the IC90 is the concentration at which the effect reaches the 90% level. Consider `Cc1cc(O)c2c(c1)C(=O)c1c(I)c(O)c(I)c(O)c1C2=O` [MMV1581545], for which the activity at 25 µM in assay [1] (setting [3]) is 12.4%; in assay [1] (setting [4]), 10.6%; in assay [1] (setting [5]) it was 4.74%; in assay [1] (setting [6]) it was 21.8%. In addition, the results for the activity at 100 µM in assay [1] (setting [7]), in assay [1] (setting [8]) and in assay [1] (setting [9]) were 12.4%, 10.8% and 12.3%, respectively. The Percent fungal survival at 100 µM in assay [1] (replicate 2) is 14.2%. Moreover, in assay [2], the “Drug static or cidal” value is “Cidal”. Further, the IC50 in assay [2] (setting [10]), in assay [2] (setting [12]), in assay [2] (setting [14]) and in assay [2] (setting [16]) was over 25 µM each time. The IC90 in assay [2] (setting [11]), in assay [2] (setting [13]), in assay [2] (setting [15]) and in assay [2] (setting [17]) was over 25 µM each time.
As to `Nc1nnnn1CCOc1c2[nH]c3ccc(Cl)cc3c2cc2c1[nH]c1ccc(Cl)cc12` [MMV1633966], the activity at 25 µM in assay [1] (setting [18]) amounted to 3.05%; in assay [1] (setting [19]), 1.67%; in assay [1] (setting [20]), 3.75%; in assay [1] (setting [21]), 3.74%. Also, the activity at 100 µM was determined as 3.34% in assay [1] (setting [22]), 3.63% in assay [1] (setting [23]) and 5.11% in assay [1] (setting [25]). In assay [1] (setting [24]), the Percent fungal survival at 100 µM was found to be 1.28%. Also, in assay [2] (M. mycetomatis), the “Drug static or cidal” value is “Cidal”. The IC50 was found to be 11 µM in assay [2] (MM55, mean of replicates, read-out: IC50 mean); 4.23 µM in assay [2] (setting [12]); 16.5 µM in assay [2] (setting [14]); 12.2 µM in assay [2] (setting [16]). Also, the IC90 is over 25 µM in assay [2] (setting [13]), 24 µM in assay [2] (setting [15]) and 23.5 µM in assay [2] (setting [17]).
With `N=c1n(CCN2CCCCC2)c2ccccc2n1CC(O)COc1ccc(Cl)cc1Cl` (stereo not drawn) [MMV394033], the activity at 25 µM was -4.41% in assay [1] (setting [3]), -10.3% in assay [1] (setting [4]), -2.83% in assay [1] (setting [5]) and -0.144% in assay [1] (setting [6]). The activity at 100 µM in assay [1] (setting [7]) was -2.82%; in assay [1] (setting [8]) it was -5.36%; in assay [1] (setting [9]), -0.0169%. Moreover, the Percent fungal survival at 100 µM in assay [1] (replicate 2) was -3.08%. In addition, the “Drug static or cidal” value in assay [2] is “Cidal”. For the same compound, the IC50 in assay [2] (setting [10]) stood at 17.1 µM; in assay [2] (setting [12]), 18.7 µM; in assay [2] (setting [14]), 16.3 µM; in assay [2] (setting [16]), 16.4 µM. Besides, the results for the IC90 in assay [2] (setting [13]), in assay [2] (setting [15]) and in assay [2] (setting [17]) were over 25 µM, 23.5 µM and 23.7 µM, respectively.
In the case of `CCCOc1ccc2nc(NC(=O)OC)[nH]c2c1` [MMV002163, Oxibendazole, reference compound], the IC50 in assay [2] (setting [26]) came to 69.1 µM.
As to `N=C(N)NCCCCC(=O)Nc1cc(C(F)(F)F)cc(NC(=O)c2cc(C(=O)Nc3cc(C(F)(F)F)cc(NC(=O)CCCCNC(=N)N)c3O[C@@H]3CCNC3)ncn2)c1O[C@@H]1CCNC1` [MMV1634402], the activity at 25 µM in assay [1] (setting [3]) worked out at 14%; in assay [1] (setting [4]) it was 3.69%; in assay [1] (setting [5]) it was 8.57%; in assay [1] (setting [6]) it was 29.8%. The activity at 100 µM in assay [1] (setting [7]) worked out at 18.1%; in assay [1] (setting [8]), 14.1%; in assay [1] (setting [9]) it was 20.5%. In addition, the Percent fungal survival at 100 µM in assay [1] (replicate 2) was found to be 19.7%. Also, the “Drug static or cidal” value in assay [2] is recorded as “Cidal”. For the same compound, the IC50 in assay [2] (setting [10]) was determined as 12.2 µM; in assay [2] (setting [12]), 6.6 µM; in assay [2] (setting [14]), 16.1 µM; in assay [2] (setting [16]), 13.8 µM. Moreover, the IC90 came out at 22.2 µM in assay [2] (setting [11]), 20 µM in assay [2] (setting [13]), 23.9 µM in assay [2] (setting [15]) and 22.8 µM in assay [2] (setting [17]).
`CCCCOC(=O)Nc1cc2nc(C3CCCCC3)[nH]c2cc1N1CCCC1` [MMV687730]: the IC50 in assay [2] (setting [26]) turned out to be 11.6 µM.
Take `CCCCc1ccc(S(=O)(=O)Nc2cc(C)on2)cc1` [MMV1782108]: the activity at 25 µM in assay [1] (mean, read-out: Percentage survival at 25um, 25 uM mean) came out at 86.1%; in assay [1] (setting [4]), 90.5%; in assay [1] (setting [5]) it was 80.2%; in assay [1] (setting [6]), 87.6%. The activity at 100 µM was found to be 82.9% in assay [1] (mean, read-out: Percentage survival at 100um, 100 uM mean); 79.8% in assay [1] (replicate (first column), read-out: Percentage survival at 100um, 100 uM A); 82.7% in assay [1] (replicate (second column), read-out: Percentage survival at 100um, 100 uM A); 86.3% in assay [1] (replicate (third column), read-out: Percentage survival at 100um, 100 uM A).
For `OCCCCn1cnc2c(O)nc(NCc3ccc(Cl)c(Cl)c3)nc21` [MMV1593542], the activity at 25 µM in assay [1] (setting [18]) was found to be 73.1%; in assay [1] (setting [19]), 73.4%; in assay [1] (setting [20]), 73.3%; in assay [1] (setting [21]), 72.6%. Moreover, the activity at 100 µM in assay [1] (setting [22]) is 74.4%; in assay [1] (setting [23]), 82.6%; in assay [1] (setting [25]), 70.1%. Also, in assay [1] (setting [24]), the Percent fungal survival at 100 µM is 70.6%.
Take `O=C(O)C[C@H]1CC[C@H](c2ccc(-c3ccc(Nc4ccc(C(F)(F)F)nc4)cn3)cc2)CC1` [MMV1580498]: the activity at 25 µM in assay [1] (mean of replicates, MM55, read-out: Percentage survival at 25um, 25 uM mean) was 72.2%; in assay [1] (replicate A, MM55, read-out: Percentage survival at 25um, 25 um A) it was 72.4%; in assay [1] (replicate B, MM55, read-out: Percentage survival at 25um, 25 uM B) it was 58.9%; in assay [1] (replicate C, MM55, read-out: Percentage survival at 25um, 25 uM C), 85.2%. Further, the activity at 100 µM was 80.6% in assay [1] (mean of replicates, MM55, read-out: Percentage survival at 100um, 100 uM mean); 82.3% in assay [1] (replicate 1, MM55, read-out: Percentage survival at 100um, 100 uM A); 88.6% in assay [1] (replicate 2, MM55, read-out: Percentage survival at 100um, 100 uM A); 70.8% in assay [1] (replicate 3, MM55, read-out: Percentage survival at 100um, 100 uM A).
Take `CC(C)(C)c1cc(C(=O)/C(C#N)=N/Nc2cccc(Cl)c2)no1` [MMV1578571]: the activity at 25 µM in assay [1] (mean of replicates, read-out: Percentage survival at 25um, 25 uM mean) stood at 61%; in assay [1] (setting [4]), 95.6%; in assay [1] (setting [5]) it was 56.3%; in assay [1] (setting [6]), 31.2%. Moreover, the activity at 100 µM in assay [1] (mean of replicates, read-out: Percentage survival at 100um, 100 uM mean) amounted to 6.1%; in assay [1] (replicate 1, read-out: Percentage survival at 100um, 100 uM A), 4.87%; in assay [1] (replicate 2, read-out: Percentage survival at 100um, 100 uM A), 4.92%; in assay [1] (replicate 3, read-out: Percentage survival at 100um, 100 uM A), 8.51%.
Consider `O=C1[C@H](CC[C@H](O)c2ccc(F)cc2)[C@@H](c2ccc(O)cc2)N1c1ccc(F)cc1` [MMV1581377], for which the activity at 25 µM in assay [1] (setting [3]) was 91.9%; in assay [1] (setting [4]), 82.7%; in assay [1] (setting [5]), 93.7%; in assay [1] (setting [6]), 99.2%. The activity at 100 µM in assay [1] (first replicate column, read-out: Percentage survival at 100um, 100 uM A) was -3.71%; in assay [1] (setting [7]) it was 43.8%; in assay [1] (second replicate column, read-out: Percentage survival at 100um, 100 uM A) it was 57.6%; in assay [1] (third replicate column, read-out: Percentage survival at 100um, 100 uM A) it was 77.4%.
